Values after ≈ are worked out from the molar mass of the structure shown.
Key:
Format in all cases: functional
Enterococcus faecalis = assay: Inhibitory activity against Enterococcus faecalis UC9217
Haemophilus influenzae = assay: Inhibitory activity against Haemophilus influenzae UC30063
Moraxella catarrhalis = assay: Inhibitory activity against Moraxella catarrhalis UC30610
Streptococcus pneumoniae = assay: Inhibitory activity against Streptococcus pneumoniae UC9912
[1] = test system: Staphylococcus epidermidis; assay: Inhibitory activity against Methicillin-resistant Staphylococcus epidermidis UC12084
Staphylococcus aureus [2] = assay: Inhibitory activity against Methicillin-resistant Staphylococcus aureus UC6685
Staphylococcus aureus [3] = assay: Inhibitory activity against Methicillin-susceptible Staphylococcus aureus UC9213
Mus musculus [4] = assay: Dose required to cure 50% of Staphylococcus aureus infected mice in the presence of eperezolid when administered orally;vlaue ranges from 1.9-6.6; conditions: po
Mus musculus [5] = assay: Dose required to cure 50% of Staphylococcus aureus infected mice when administered orally administered; conditions: po
Mus musculus [6] = assay: Dose required to cure 50% of Staphylococcus aureus infected mice when administered orally; conditions: po
Mus musculus [7] = assay: Dose required to cure 50% of Staphylococcus aureus infected mice in the presence of eperezolid when administered orally; conditions: po
Mus musculus [8] = assay: Dose required to cure 50% of Staphylococcus aureus infected mice in the presence of vancomycin when orally administered; conditions: po
Mus musculus [9] = assay: Dose required to cure 50% of Staphylococcus aureus infected mice when orally administered; value ranges from 7.9-32.5; conditions: po
Mus musculus [10] = assay: Dose required to cure 50% of Staphylococcus aureus infected mice in the presence of eperezolid when orally administered.; conditions: po
Mus musculus [11] = assay: Dose required to cure 50% of Staphylococcus aureus infected mice when administered orally;; conditions: po
Mus musculus [12] = assay: Dose required to cure 50% of Staphylococcus aureus infected mice in the presence of eperezolid when administered orally; value ranges from 4.0-26.7; conditions: po
Mus musculus [13] = assay: Dose required to cure 50% of Staphylococcus aureus infected mice in the presence of eperezolid when administered orally; value ranges from 2.9-7.1); conditions: po
Mus musculus [14] = assay: Dose required to cure 50% of Staphylococcus aureus infected mice when administered orally; value ranges from 5.7-14.5; conditions: po
Mus musculus [15] = assay: Dose required to cure 50% of Staphylococcus aureus infected mice when orally administered; value ranges from 4.3-13.3; conditions: po
Mus musculus [16] = assay: Dose(orally administered) required to cure 50% of Staphylococcus aureus infected mice in the presence of eperezolid when orally administered; value ranges from 2.2-6.1; conditions: po
Mus musculus [17] = assay: Dose required to cure 50% of Staphylococcus aureus infected mice in the presence of vancomycin when administered orally; value ranges from 1.43-3.5; conditions: po
Mus musculus [18] = assay: Dose required to cure 50% of Staphylococcus aureus infected mice when administered orally; value ranges from 5.5-22.1; conditions: po
Mus musculus [19] = assay: Dose(orally administered) required to cure 50% of Staphylococcus aureus infected mice in the presence of eperezolid when administered orally; value ranges from 0.8-2.3; conditions: po
Mus musculus [20] = assay: Dose required to cure 50% of Staphylococcus aureus infected mice when administered orally.; conditions: po
Mus musculus [21] = assay: Dose required to cure 50% of Staphylococcus aureus infected mice in the presence of vancomycin when administered orally; value ranges from 2.5-6.4; conditions: po
Mus musculus [22] = assay: Dose required to cure 50% of Staphylococcus aureus infected mice when administered orally; value ranges from 1.4-3.8; conditions: po
Mus musculus [23] = assay: Dose required to cure 50% of Staphylococcus aureus infected mice when administered orally; value ranges from 2.9-8.5; conditions: po
Mus musculus [24] = assay: Dose(orally administered) required to cure 50% of Staphylococcus aureus infected mice; conditions: po

CO/N=C/c1cn(-c2ccc(N3C[C@H](CNC(C)=O)OC3=O)cc2F)nn1
MIC (Enterococcus faecalis): 4 µg/mL (≈ 10.6 µM) | MIC (Haemophilus influenzae): > 16 µg/mL | MIC (Moraxella catarrhalis): 16 µg/mL (≈ 42.5 µM) | MIC (Streptococcus pneumoniae): 0.5 µg/mL (≈ 1.33 µM) | MIC [1]: 1 µg/mL (≈ 2.66 µM) | MIC (Staphylococcus aureus [2]): 2 µg/mL (≈ 5.31 µM) | MIC (Staphylococcus aureus [3]): 4 µg/mL (≈ 10.6 µM) | ED50 (Mus musculus [4]): 3.8 mg/kg/day | ED50 (Mus musculus [5]): 8.6 mg/kg/day

COC(=O)c1cn(-c2ccc(N3C[C@H](CNC(C)=O)OC3=O)cc2F)nn1
MIC (Enterococcus faecalis): 4 µg/mL (≈ 10.6 µM) | MIC (Haemophilus influenzae): > 16 µg/mL | MIC (Moraxella catarrhalis): 16 µg/mL (≈ 42.4 µM) | MIC (Streptococcus pneumoniae): 1 µg/mL (≈ 2.65 µM) | MIC [1]: 2 µg/mL (≈ 5.3 µM) | MIC (Staphylococcus aureus [2]): 4 µg/mL (≈ 10.6 µM) | MIC (Staphylococcus aureus [3]): 4 µg/mL (≈ 10.6 µM) | ED50 (Mus musculus [6]): > 20 mg/kg/day | ED50 (Mus musculus [7]): 15.3 mg/kg/day

CC(=O)NC[C@H]1CN(c2ccc(-n3cccc3)c(F)c2)C(=O)O1
MIC (Enterococcus faecalis): 1 µg/mL (≈ 3.15 µM) | MIC (Haemophilus influenzae): 4 µg/mL (≈ 12.6 µM) | MIC (Moraxella catarrhalis): 2 µg/mL (≈ 6.3 µM) | MIC (Streptococcus pneumoniae): ≤ 0.5 µg/mL | MIC [1]: ≤ 0.5 µg/mL | MIC (Staphylococcus aureus [2]): 1 µg/mL (≈ 3.15 µM) | MIC (Staphylococcus aureus [3]): 1 µg/mL (≈ 3.15 µM) | ED50 (Mus musculus [8]): 2.7 mg/kg/day | ED50 (Mus musculus [9]): 13.2 mg/kg/day

CC(=O)NC[C@H]1CN(c2ccc(-n3cc(/C(C)=N\O)nn3)c(F)c2)C(=O)O1
MIC (Enterococcus faecalis): 8 µg/mL (≈ 21.3 µM) | MIC (Haemophilus influenzae): 16 µg/mL (≈ 42.5 µM) | MIC (Moraxella catarrhalis): 4 µg/mL (≈ 10.6 µM) | MIC (Streptococcus pneumoniae): 0.5 µg/mL (≈ 1.33 µM) | MIC [1]: 2 µg/mL (≈ 5.31 µM) | MIC (Staphylococcus aureus [2]): 4 µg/mL (≈ 10.6 µM) | MIC (Staphylococcus aureus [3]): 4 µg/mL (≈ 10.6 µM)

CC(=O)NC[C@H]1CN(c2ccc(-n3ccc(/C(C)=N\O)c3)c(F)c2)C(=O)O1
MIC (Enterococcus faecalis): 1 µg/mL (≈ 2.67 µM) | MIC (Haemophilus influenzae): 8 µg/mL (≈ 21.4 µM) | MIC (Moraxella catarrhalis): 2 µg/mL (≈ 5.34 µM) | MIC (Streptococcus pneumoniae): 0.25 µg/mL (≈ 0.668 µM) | MIC [1]: 0.5 µg/mL (≈ 1.34 µM) | MIC (Staphylococcus aureus [2]): 1 µg/mL (≈ 2.67 µM) | MIC (Staphylococcus aureus [3]): 2 µg/mL (≈ 5.34 µM) | ED50 (Mus musculus [6]): 15 mg/kg/day | ED50 (Mus musculus [10]): 10 mg/kg/day

CC(=O)NC[C@H]1CN(c2ccc(-n3cnnn3)c(F)c2)C(=O)O1
MIC (Enterococcus faecalis): 2 µg/mL (≈ 6.24 µM) | MIC (Haemophilus influenzae): 16 µg/mL (≈ 50 µM) | MIC (Moraxella catarrhalis): 16 µg/mL (≈ 50 µM) | MIC (Streptococcus pneumoniae): 1 µg/mL (≈ 3.12 µM) | MIC [1]: 2 µg/mL (≈ 6.24 µM) | MIC (Staphylococcus aureus [2]): 2 µg/mL (≈ 6.24 µM) | MIC (Staphylococcus aureus [3]): 4 µg/mL (≈ 12.5 µM) | ED50 (Mus musculus [11]): > 20 mg/kg/day | ED50 (Mus musculus [12]): 7.8 mg/kg/day

CC(=O)NC[C@H]1CN(c2ccc(-n3cc(C(C)=O)nn3)c(F)c2)C(=O)O1
MIC (Enterococcus faecalis): 2 µg/mL (≈ 5.54 µM) | MIC (Haemophilus influenzae): 8 µg/mL (≈ 22.1 µM) | MIC (Moraxella catarrhalis): 8 µg/mL (≈ 22.1 µM) | MIC (Streptococcus pneumoniae): 0.5 µg/mL (≈ 1.38 µM) | MIC [1]: 1 µg/mL (≈ 2.77 µM) | MIC (Staphylococcus aureus [2]): 1 µg/mL (≈ 2.77 µM) | MIC (Staphylococcus aureus [3]): 1 µg/mL (≈ 2.77 µM) | ED50 (Mus musculus [13]): 4.4 mg/kg/day | ED50 (Mus musculus [14]): 8.8 mg/kg/day

CO/N=C\c1ccn(-c2ccc(N3C[C@H](CNC(C)=O)OC3=O)cc2F)c1
MIC (Enterococcus faecalis): 1 µg/mL (≈ 2.67 µM) | MIC (Haemophilus influenzae): 16 µg/mL (≈ 42.7 µM) | MIC (Moraxella catarrhalis): 16 µg/mL (≈ 42.7 µM) | MIC (Streptococcus pneumoniae): 0.25 µg/mL (≈ 0.668 µM) | MIC [1]: 0.5 µg/mL (≈ 1.34 µM) | MIC (Staphylococcus aureus [2]): 1 µg/mL (≈ 2.67 µM) | MIC (Staphylococcus aureus [3]): 1 µg/mL (≈ 2.67 µM) | ED50 (Mus musculus [15]): 7.3 mg/kg/day | ED50 (Mus musculus [16]): 3.5 mg/kg/day

CC(=O)NC[C@H]1CN(c2ccc(-n3ccnc3)c(F)c2)C(=O)O1
MIC (Enterococcus faecalis): 2 µg/mL (≈ 6.28 µM) | MIC (Haemophilus influenzae): 8 µg/mL (≈ 25.1 µM) | MIC (Moraxella catarrhalis): 4 µg/mL (≈ 12.6 µM) | MIC (Streptococcus pneumoniae): ≤ 0.5 µg/mL | MIC [1]: ≤ 0.5 µg/mL | MIC (Staphylococcus aureus [2]): 1 µg/mL (≈ 3.14 µM) | MIC (Staphylococcus aureus [3]): 2 µg/mL (≈ 6.28 µM) | ED50 (Mus musculus [17]): 2.2 mg/kg/day | ED50 (Mus musculus [18]): 9.5 mg/kg/day

CC(=O)NC[C@H]1CN(c2ccc(-n3ccc(CCCNS(C)(=O)=O)c3)c(F)c2)C(=O)O1
MIC (Enterococcus faecalis): 2 µg/mL (≈ 4.42 µM) | MIC (Haemophilus influenzae): > 16 µg/mL | MIC (Moraxella catarrhalis): 8 µg/mL (≈ 17.7 µM) | MIC (Streptococcus pneumoniae): 0.5 µg/mL (≈ 1.1 µM) | MIC [1]: 2 µg/mL (≈ 4.42 µM) | MIC (Staphylococcus aureus [2]): 4 µg/mL (≈ 8.84 µM) | MIC (Staphylococcus aureus [3]): 8 µg/mL (≈ 17.7 µM) | ED50 (Mus musculus [19]): 1.8 mg/kg/day | ED50 (Mus musculus [20]): > 20 mg/kg/day

CC(=O)NC[C@H]1CN(c2ccc(N3CCN(C(=O)CO)CC3)c(F)c2)C(=O)O1 [EPEREZOLID]
ED50 (Mus musculus [21]): 3.9 mg/kg/day | ED50 (Mus musculus [22]): 1.9 mg/kg/day

CC(=O)NC[C@H]1CN(c2ccc(N3CCOCC3)c(F)c2)C(=O)O1 [LINEZOLID]
ED50 (Mus musculus [21]): 3.9 mg/kg/day | ED50 (Mus musculus [23]): 5.6 mg/kg/day

CN[C@H](CC(C)C)C(=O)N[C@H]1C(=O)N[C@@H](CC(N)=O)C(=O)N[C@H]2C(=O)N[C@H]3C(=O)N[C@H](C(=O)N[C@H](C(=O)O)c4cc(O)cc(O)c4-c4cc3ccc4O)[C@H](O)c3ccc(c(Cl)c3)Oc3cc2cc(c3O[C@@H]2O[C@H](CO)[C@@H](O)[C@H](O)[C@H]2O[C@H]2C[C@](C)(N)[C@H](O)[C@H](C)O2)Oc2ccc(cc2Cl)[C@H]1O [VANCOMYCIN]
ED50 (Mus musculus [24]): 3.9 mg/kg/day
